{"source": "patent US7786097B2", "about": "“Tricyclic compounds, compositions and methods” (Pfizer Inc., priority 2007, dated 2010)", "key": {"[1]": {"system": "IL-1β production in human whole blood", "assay": "Ex vivo LPS-stimulated human whole blood, IL-1β", "type": "cell-based", "conditions": "LPS 100 ng/ml, 22 hours, one donor", "experimental": "(§1) Venous blood from human donors was collected as 10 ml aliquots in tubes containing sodium heparin (BD Vacutainer from Becton Dickinson and Company, Franklin Lakes, N.Y.). Blood was added to sterile polystyrene round bottom 96-well tissue culture plates (Corning Costar) at 100 μl/well, omitting the outside wells. Media (RPMI Medium 1640 with L-glutamine, Invitrogen Corporation, Carlsbad, Calif.) was added to the blood in 90 μl aliquots for a total volume of 190 μl. Outside wells were filled with 200 μl of media. Blood was placed in a humidified 37° C. incubator with 5% CO2 while compounds were prepared (nearly 60 minutes).\n(§2) Compounds were prepared from 10 mM stock solutions in dimethylsulfoxide (DMSO, Sigma-Aldrich). […] Final DMSO and ethanol concentrations in the assay were 0.1% and 1.5%. The samples were gently triturated twice to mix and replaced in the incubator. LPS stock (E. coli serotype 0111:B4, Sigma-Aldrich), stored in aliquots of 100 μg/ml in RPMI at −20° C., was diluted 1/50 in RPMI to make a working stock solution. After 60 minutes of incubation, 10 μl of the prepared LPS working stock was added to the blood to a final concentration of 100 ng/ml, omitting wells to be used as negative control. The samples were again gently triturated and the plates incubated overnight for 22 hours. Following incubation, the blood was centrifuged at 1500×g for 5 minutes and the plasma removed to either freeze at −20° C. or assay for cytokine release.\n(§3) IL-1β, IFNγ, IL-6, and TNFα protein levels were measured using Meso Scale assay kits (Meso Scale Discovery, Gaithersburg, Md.). Reagents were allowed to come to room temperature. Meso Scale plates were blocked with 30 μl of human plasma/serum assay diluent with gentle shaking for 60 minutes at room temperature. Plates were washed 3× with wash buffer (PBS, Invitrogen Corporation, with 0.05% Tween-20, Sigma-Aldrich). Calibrators for standard curves were prepared in human plasma/serum assay diluent as a […] serial dilution to achieve final concentrations ranging from 50000 pg/ml to 3.2 pg/ml. Samples and calibrators were added at 20 μl/well, then incubated at room temperature with gentle shaking for 90 minutes. Plates were again washed 3 times with wash buffer. Detection antibody was diluted in human plasma/serum antibody diluent to 1 μg/ml and added to the plate at 20 μl/well. Plates were incubated as before for 60 minutes and washed again. Read Buffer T<4×) was diluted 1:1 with mqH2O to 2 times concentration and 150 μl added to each well. Plates were analyzed on the SECTOR Imager 6000 (Meso Scale Discovery) to generate raw signal values.\n(§4) IL-1β, IFN-γ, IL-6, and TNFα sample values were verified to be within the calibrator standard curves. Individual values were compared to positive and negative controls (vehicle treated blood with LPS and vehicle treated blood without LPS, respectively) to generate % inhibition. Triplicate values were averaged for each donor. The values for two donors were averaged (only one donor was used for IL-1β) and graphed using 4-parameter fit curves in the GraFit 5.0.11 application."}, "[2]": {"system": "Cortical bone formation rate (BFR)", "assay": "Cortical bone histomorphometry, bone formation rate (BFR)", "type": "in vivo", "conditions": "AUC 0-4 hr, mice", "experimental": "During the in-life portion of each study, mice received two intraperitoneal (i.p.) injections (20 mg/kg, […]) of calcein (C-0875; Sigma-Aldrich, St. Louis, Mo.) on days 1 and 26 for bone histomorphometry measurements. Calcein incorporates into the bone mineral and allows measurement of bone formation rate. Calcein was dissolved in 2% sodium bicarbonate. During the tissue harvest, the left tibiae were excised and cleaned for cortical histomorphometry measurements. After all skin and muscle were removed, tibiae were placed in 70% ethanol 4° C.) in the dark for a minimum of 24 hours.\nGround transverse sections were used for histomorphometric analysis of cortical bone. Bones were sectioned using a low-speed saw (Isomet, Buehler, Lake Bluff, Ill.) equipped with a diamond wafer blade. The end of each tibia was removed proximal to tibia-fibula synostosis and a […] cross-section was cut. Using a roughened glass plate and a cork, sections were ground to […] until transparent and all labels were distinguishable under a fluorescent microscope. Sections were dehydrated using the following solutions for a minimum of two minutes each: 1) 70% ethanol, 2) 95% ethanol, 3) 100% ethanol, 4) 50/50 ethanol/xylene, and 5) xylene (twice) (#534056; Sigma-Aldrich, St. Louis, Mo.). Sections were mounted using Eukitt Quick Mounting Medium (#03989, Sigma-Aldrich, St. Louis, Mo.) after which coverslip was applied. Using the Osteomeasure Bone Analysis Program (Osteometrics, Inc., Decatur, Ga.), bone formation rate was calculated by tracing the 1st and […] fluorescent labels and the inner and outer perimeter of the bone. Bone formation rate was calculated by the following equation: (Inter-label width/Label interval)*(Labeled perimeter/Bone perimeter). At least five samples were measured from each treatment group in each study."}, "[3]": {"system": "IFNγ production in human whole blood", "assay": "Ex vivo LPS-stimulated human whole blood, IFNγ", "type": "cell-based", "conditions": "LPS 100 ng/ml, 22 hours, mean of two donors", "experimental": "as §1, §2, §3, §4"}, "[4]": {"system": "IL-6 production in human whole blood", "assay": "Ex vivo LPS-stimulated human whole blood, IL-6", "type": "cell-based", "conditions": "LPS 100 ng/ml, 22 hours, mean of two donors", "experimental": "as §1, §2, §3, §4"}}}
{"molecule": "C[C@]12C=CC(=O)C=C1CC[C@@H]1[C@@H]2[C@@H](O)C[C@@]2(C)[C@H]1CC[C@]2(O)C(=O)CO", "note": "[Prednisolone]", "values": [{"measurement": "inhibition at 0.000457247 µM", "setting": "[1]; 0.457247 nM", "result": 9.65, "unit": "%"}, {"measurement": "inhibition at 0.00137174 µM", "setting": "[1]; 1.371742 nM", "result": 15.1, "unit": "%"}, {"measurement": "inhibition at 0.00411523 µM", "setting": "[1]; 4.115226 nM", "result": 21, "unit": "%"}, {"measurement": "inhibition at 0.0123457 µM", "setting": "[1]; 12.34568 nM", "result": 33.6, "unit": "%"}, {"measurement": "inhibition at 0.037037 µM", "setting": "[1]; 37.03704 nM", "result": 37.7, "unit": "%"}, {"measurement": "inhibition at 0.111111 µM", "setting": "[1]; 111.1111 nM", "result": 73.2, "unit": "%"}, {"measurement": "inhibition at 0.333333 µM", "setting": "[1]; 333.3333 nM", "result": 92.9, "unit": "%"}, {"measurement": "inhibition at 1 µM", "setting": "[1]; 1000 nM", "result": 94.9, "unit": "%"}, {"measurement": "Cortical bone formation rate (BFR) EAUC50", "setting": "[2]", "result": 90, "unit": "ng·h/mL"}, {"measurement": "Cortical bone formation rate (BFR) EAUC80", "setting": "[2]", "result": 600, "unit": "ng·h/mL"}, {"measurement": "inhibition at 0.000457247 µM", "setting": "[3]; 0.457247 nM", "result": 4.93, "unit": "%"}, {"measurement": "inhibition at 0.00137174 µM", "setting": "[3]; 1.371742 nM", "result": 10.9, "unit": "%"}, {"measurement": "inhibition at 0.00411523 µM", "setting": "[3]; 4.115226 nM", "result": 5.16, "unit": "%"}, {"measurement": "inhibition at 0.0123457 µM", "setting": "[3]; 12.34568 nM", "result": 25.7, "unit": "%"}, {"measurement": "inhibition at 0.037037 µM", "setting": "[3]; 37.03704 nM", "result": 63.5, "unit": "%"}, {"measurement": "inhibition at 0.111111 µM", "setting": "[3]; 111.1111 nM", "result": 95, "unit": "%"}, {"measurement": "inhibition at 0.333333 µM", "setting": "[3]; 333.3333 nM", "result": 99.8, "unit": "%"}, {"measurement": "inhibition at 1 µM", "setting": "[3]; 1000 nM", "result": 100, "unit": "%"}, {"measurement": "inhibition at 0.000457247 µM", "setting": "[4]; 0.457247 nM", "result": 2.22, "unit": "%"}, {"measurement": "inhibition at 0.00137174 µM", "setting": "[4]; 1.371742 nM", "result": -0.941, "unit": "%"}, {"measurement": "inhibition at 0.00411523 µM", "setting": "[4]; 4.115226 nM", "result": -0.232, "unit": "%"}, {"measurement": "inhibition at 0.0123457 µM", "setting": "[4]; 12.34568 nM", "result": -0.417, "unit": "%"}, {"measurement": "inhibition at 0.037037 µM", "setting": "[4]; 37.03704 nM", "result": 5.03, "unit": "%"}, {"measurement": "inhibition at 0.111111 µM", "setting": "[4]; 111.1111 nM", "result": 11.7, "unit": "%"}, {"measurement": "inhibition at 0.333333 µM", "setting": "[4]; 333.3333 nM", "result": 40.3, "unit": "%"}, {"measurement": "inhibition at 1 µM", "setting": "[4]; 1000 nM", "result": 62.1, "unit": "%"}]}
